Assays:
Type in all cases: in vivo
[1] = tested on: Beet Armyworm (Spodoptera exigua, LAPHEG); experiment: Bioassay on Beet Armyworm (BAW), 128-well diet tray assay; settings: 168 h, 50 μg/cm^2 on artificial diet, second instar larvae, 25° C., five to seven days, average of eight wells, read-out: BAW % Control (or Mortality) rating
Description: (§1) Certain molecules disclosed in this document were tested against BAW and CL using procedures described in the following examples. In the reporting of the results, the “BAW & CL Rating Table” was used (See Table Section).
Bioassays on BAW were conducted using a 128-well diet tray assay. One to five second instar BAW larvae were placed in each well (3 mL) of the diet tray that had been previously filled with approximately 1.5 mL of artificial diet to which 50 μg/cm^2 of the test molecule (dissolved in 50 μL of 90:10 acetone-water mixture) had been applied (to each of eight wells) and then allowed to dry. Trays were covered with a clear self-adhesive cover, vented to allow gas exchange, and held at 25° C., 14:10 light-dark for five to seven days. Percent mortality was recorded for the larvae in each well; activity in the eight wells was then averaged. The results are indicated in the table entitled “Table ABC: Biological Results” (See Table Section).

[2] = tested on: Cabbage Looper (Trichoplusia ni, TRIPNI); experiment: Bioassay on Cabbage Looper (CL), 128-well diet tray assay; settings: 168 h, 50 μg/cm^2 on artificial diet, second instar larvae, 25° C., five to seven days, average of eight wells, read-out: CL % Control (or Mortality) rating
Description: as §1
Bioassays on CL were conducted using a 128-well diet tray assay, one to five second instar CL larvae were placed in each well (3 mL) of the diet tray that had been previously filled with 1 mL of artificial diet to which 50 μg/cm^2 of the test molecule (dissolved in 50 μL of 90:10 acetone-water mixture) had been applied (to each of eight wells) and then allowed to dry. Trays were covered with a clear self-adhesive cover, vented to allow gas exchange, and held at 25° C., 14:10 light-dark for five to seven days. Percent mortality was recorded for the larvae in each well; activity in the eight wells was then averaged. The results are indicated in the table entitled “Table ABC: Biological Results” (See Table Section).

[3] = tested on: Yellow Fever Mosquito (Aedes aegypti, AEDSAE); experiment: Bioassay on Yellow Fever Mosquito (YFM) larvae, 96-well plate; settings: about 1 day-old larvae, room temperature, 3 days, scored on mortality
Description: Certain molecules disclosed in this document were tested against YFM using procedures described in the following paragraph. In the reporting of the results, the “GPA & YFM Rating Table” was used (See Table Section).
Master plates containing 400 μg of a molecule dissolved in 100 μL of dimethyl sulfoxide (DMSO) (equivalent to a 4000 ppm solution) are used. A master plate of assembled molecules contains 15 μL per well. To this plate, 135 μL of a 90:10 water/acetone mixture is added to each well. A robot is programmed to dispense 15 μL aspirations from the master plate into an empty 96-well shallow plate (“daughter” plate). There are 6 reps (“daughter” plates) created per master. The created “daughter” plates are then immediately infested with YFM larvae.
The day before plates are to be treated, mosquito eggs are placed in Millipore water containing liver powder to begin hatching (4 g. into 400 mL). After the “daughter” plates are created using the robot, they are infested with 220 μL of the liver powder/larval mosquito mixture (about 1 day-old larvae). After plates are infested with mosquito larvae, a non-evaporative lid is used to cover the plate to reduce drying. Plates are held at room temperature for 3 days prior to grading. After 3 days, each well is observed and scored based on mortality. The results are indicated in the table entitled “Table ABC: Biological Results” (See Table Section).

In the case of `O=C(NCC(F)(F)F)c1cc(NC(=O)[C@H]2[C@H](c3ccc(C(F)F)cc3)C2(Cl)Cl)ccc1Cl` (relative stereo) [F135, 2-Chloro-5-(trans-2,2-dichloro-3-(4-(difluoromethyl)phenyl)cyclopropane-1-carboxamido)-N-(2,2,2-trifluoroethyl)benzamide], the mortality at 50 µg/cm2 [1] was 0%, the mortality at 50 µg/cm2 [2] was 50 to 100% and the “YFM % Control (or Mortality) rating” value [3] was “A (80-100)”.
In the case of `O=C(NCCN1CCNC1=O)c1cc(NC(=O)[C@H]2[C@H](c3cc(Cl)cc(Cl)c3)C2(Cl)Cl)ccc1Cl` (relative stereo) [F79, trans-2-Chloro-5-(2,2-dichloro-3-(3,5-dichlorophenyl)cyclopropane-1-carboxamido)-N-(2-(2-oxoimidazolidin-1-yl)ethyl)benzamide], the mortality at 50 µg/cm2 [1] was 50 to 100%, the mortality at 50 µg/cm2 [2] was 50 to 100% and the “YFM % Control (or Mortality) rating” value [3] was “A (80-100)”.
With `CC(O)CNC(=O)c1cc(NC(=O)[C@H]2[C@H](c3cc(Cl)cc(Cl)c3)C2(Cl)Cl)ccc1Cl` (relative stereo) [F78, trans-2-Chloro-5-(2,2-dichloro-3-(3,5-dichlorophenyl)cyclopropane-1-carboxamido)-N-(2-hydroxypropyl)benzamide] the mortality at 50 µg/cm2 [1] was 50 to 100%, the mortality at 50 µg/cm2 [2] was 50 to 100% and the “YFM % Control (or Mortality) rating” value [3] was “A (80-100)”.
With `O=C(NCCC(F)(F)F)c1cc(NC(=O)[C@H]2[C@H](c3cc(Cl)cc(Cl)c3)C2(Cl)Cl)cc(Cl)c1Cl` (relative stereo) [F94, trans-2,3-Dichloro-5-(2,2-dichloro-3-(3,5-dichlorophenyl)cyclopropane-1-carboxamido)-N-(3,3,3-trifluoropropyl)benzamide] the mortality at 50 µg/cm2 [1] was 50 to 100%, the mortality at 50 µg/cm2 [2] was 50 to 100% and the “YFM % Control (or Mortality) rating” value [3] was “A (80-100)”.
For `C[C@H](C[S+]([O-])CCC(F)(F)F)NC(=O)c1cc(NC(=O)C2C(c3cc(Cl)cc(Cl)c3)C2(Cl)Cl)ccc1Cl` (stereo in doubt) [PF5, trans-2-Chloro-5-(2,2-dichloro-3-(3,5-dichlorophenyl)cyclopropane-1-carboxamido)-N-((2R)-1-((3,3,3-trifluoropropyl)sulfinyl)propan-2-yl)benzamide], the mortality at 50 µg/cm2 [1] was 50 to 100%, the mortality at 50 µg/cm2 [2] was 50 to 100% and the “YFM % Control (or Mortality) rating” value [3] was “A (80-100)”.
`CC(C)(NC(=O)c1cc(NC(=O)[C@H]2[C@H](c3cc(Cl)cc(Cl)c3)C2(Cl)Cl)ccc1Cl)c1ccc(F)cc1` (relative stereo) [F97, 2-Chloro-5-(trans-2,2-dichloro-3-(3,5-dichlorophenyl)cyclopropane-1-carboxamido)-N-(2-(4-fluorophenyl)propan-2-yl)benzamide] was tested, and the mortality at 50 µg/cm2 [1] was 50 to 100%, the mortality at 50 µg/cm2 [2] was 50 to 100% and the “YFM % Control (or Mortality) rating” value [3] was “A (80-100)”.
For `CCCN(C)C(=O)c1cc(NC(=O)[C@H]2[C@H](c3cc(Cl)cc(Cl)c3)C2(Cl)Cl)ccc1Cl` (relative stereo) [F62, trans-2-Chloro-5-(2,2-dichloro-3-(3,5-dichlorophenyl)cyclopropane-1-carboxamido)-N-methyl-N-propylbenzamide], the mortality at 50 µg/cm2 [1] was 50 to 100%, the mortality at 50 µg/cm2 [2] was 50 to 100% and the “YFM % Control (or Mortality) rating” value [3] was “D (No activity noticed in this bioassay)”.
In the case of `CSCCNC(=O)c1cc(NC(=O)[C@H]2[C@H](c3cc(Cl)cc(Cl)c3)C2(Cl)Cl)ccc1Cl` (relative stereo) [F52, trans-2-Chloro-5-(2,2-dichloro-3-(3,5-dichlorophenyl)cyclopropane-1-carboxamido)-N-(2-(methylthio)ethyl)benzamide], the mortality at 50 µg/cm2 [1] was 50 to 100%, the mortality at 50 µg/cm2 [2] was 50 to 100% and the “YFM % Control (or Mortality) rating” value [3] was “B (More than 0-Less than 80)”.
With `O=C(NCc1ccc(-n2cncn2)cc1)c1cc(NC(=O)[C@H]2[C@H](c3cc(Cl)cc(Cl)c3)C2(Cl)Cl)ccc1Cl` (relative stereo) [PF11, trans-N-(4-(1H-1,2,4-Triazol-1-yl)benzyl)-2-chloro-5-(2,2-dichloro-3-(3,5-dichlorophenyl)cyclopropane-1-carboxamido)benzamide] the mortality at 50 µg/cm2 [1] was 50 to 100%, the mortality at 50 µg/cm2 [2] was 50 to 100% and the “YFM % Control (or Mortality) rating” value [3] was “A (80-100)”.
With `CCCNC(=O)c1cc(NC(=O)[C@H]2[C@H](c3cc(Cl)c(OC)c(Cl)c3)C2(Cl)Cl)ccc1Cl` (relative stereo) [F84, trans-2-Chloro-5-(2,2-dichloro-3-(3,5-dichloro-4-methoxyphenyl)cyclopropane-1-carboxamido)-N-propylbenzamide] the mortality at 50 µg/cm2 [1] was 50 to 100%, the mortality at 50 µg/cm2 [2] was 50 to 100% and the “YFM % Control (or Mortality) rating” value [3] was “D (No activity noticed in this bioassay)”.
For `O=C(NCC(F)(F)F)c1cc(NC(=O)[C@H]2[C@H](c3cc(Cl)cc(C(F)F)c3)C2(Cl)Cl)ccc1Cl` (relative stereo) [F128, 2-Chloro-5-(trans-2,2-dichloro-3-(3-chloro-5-(difluoromethyl)phenyl)cyclopropane-1-carboxamido)-N-(2,2,2-trifluoroethyl)benzamide], the mortality at 50 µg/cm2 [1] was 50 to 100%, the mortality at 50 µg/cm2 [2] was 50 to 100% and the “YFM % Control (or Mortality) rating” value [3] was “A (80-100)”.
In the case of `O=C(NCCc1nccs1)c1cc(NC(=O)[C@H]2[C@H](c3cc(Cl)cc(Cl)c3)C2(Cl)Cl)ccc1Cl` (relative stereo) [PF12, trans-2-Chloro-5-(2,2-dichloro-3-(3,5-dichlorophenyl)cyclopropane-1-carboxamido)-N-(2-(thiazol-2-yl)ethyl)benzamide], the mortality at 50 µg/cm2 [1] was 50 to 100%, the mortality at 50 µg/cm2 [2] was 50 to 100% and the “YFM % Control (or Mortality) rating” value [3] was “A (80-100)”.
In the case of `O=C(NCC(F)(F)F)c1cc(NC(=O)[C@H]2[C@H](c3ccc(C(F)(F)F)c(Br)c3)C2(Cl)Cl)ccc1Cl` (relative stereo) [F114, 5-(trans-3-(3-Bromo-4-(trifluoromethyl)phenyl)-2,2-dichlorocyclopropane-1-carboxamido)-2-chloro-N-(2,2,2-trifluoroethyl)benzamide], the mortality at 50 µg/cm2 [1] was 50 to 100%, the mortality at 50 µg/cm2 [2] was 50 to 100% and the “YFM % Control (or Mortality) rating” value [3] was “A (80-100)”.
`CN(CC1CC(F)(F)C1)C(=O)c1cc(NC(=O)[C@H]2[C@H](c3cc(Cl)cc(Cl)c3)C2(Cl)Cl)ccc1Cl` (relative stereo) [F73, trans-2-Chloro-5-(2,2-dichloro-3-(3,5-dichlorophenyl)cyclopropane-1-carboxamido)-N-((3,3-difluorocyclobutyl)methyl)-N-methylbenzamide] was tested, and the mortality at 50 µg/cm2 [1] was 50 to 100%, the mortality at 50 µg/cm2 [2] was 50 to 100% and the “YFM % Control (or Mortality) rating” value [3] was “A (80-100)”.
In the case of `NS(=O)(=O)CCCNC(=O)c1cc(NC(=O)[C@H]2[C@H](c3cc(Cl)cc(Cl)c3)C2(Cl)Cl)ccc1Cl` (relative stereo) [PF14, trans-2-Chloro-5-(2,2-dichloro-3-(3,5-dichlorophenyl)cyclopropane-1-carboxamido)-N-(3-sulfamoylpropyl)benzamide], the mortality at 50 µg/cm2 [1] was 0 to 50%, the mortality at 50 µg/cm2 [2] was 50 to 100% and the “YFM % Control (or Mortality) rating” value [3] was “D (No activity noticed in this bioassay)”.
In the case of `O=C(NCC(F)(F)F)c1cc(NC(=O)[C@H]2[C@H](c3cc(F)cc(F)c3)C2(Cl)Cl)ccc1Cl` (relative stereo) [F121, 2-Chloro-5-(trans-2,2-dichloro-3-(3,5-difluorophenyl)cyclopropane-1-carboxamido)-N-(2,2,2-trifluoroethyl)benzamide], the mortality at 50 µg/cm2 [1] was 50 to 100%, the mortality at 50 µg/cm2 [2] was 50 to 100% and the “YFM % Control (or Mortality) rating” value [3] was “A (80-100)”.
`O=C(NCC(F)(F)F)c1cc(NC(=O)[C@H]2[C@H](c3ccc(F)c(C(F)F)c3)C2(Cl)Cl)ccc1Cl` (relative stereo) [F131, 2-Chloro-5-(trans-2,2-dichloro-3-(3-(difluoromethyl)-4-fluorophenyl)cyclopropane-1-carboxamido)-N-(2,2,2-trifluoroethyl)benzamide] was tested, and the mortality at 50 µg/cm2 [1] was 50 to 100%, the mortality at 50 µg/cm2 [2] was 50 to 100% and the “YFM % Control (or Mortality) rating” value [3] was “A (80-100)”.
